Drawing on PubChem BioAssay (NCI), this text covers TGI for 13 compounds.

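1) Cells in 96-well plates. 2) Compound, 48 h, 5 concentrations. 3) Linear interpolation between surrounding doses. 4) Unreached endpoint = highest concentration. TGI: total growth inhibition.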 Some results are limits rather than exact numbers.

Among the test systems are K-562 leukemia; NCI-H226 lung; SK-OV-3 ovarian; OVCAR-5 ovarian; SNB-75 CNS; SR leukemia; SF-268 CNS; A498 renal; TK-10 renal; COLO 205 colon; HOP-92 NSCLC.
Holding throughout (test): DTP human tumour cell line panel, 48 h

As usually defined, the TGI is the concentration giving total growth inhibition. Read a high TGI as lower sensitivity of the cells. Turning to `CCSc1nc(N/N=C/c2cccs2)c2cnn(CO)c2n1`, the total growth inhibition concentration (TGI) in the experiment on K-562 leukemia worked out at 52.7 µM; with NCI-H226 lung, 9.09 µM; in the experiment with SK-OV-3 ovarian, 29.4 µM; in the experiment with OVCAR-5 ovarian, 27 µM; in the experiment with SNB-75 CNS, 28.7 µM; in the experiment on SR leukemia, 26.7 µM. The TGI was 23.7 µM with SF-268 CNS; 9.53 µM in the experiment with A498 renal; 21.9 µM in the experiment with TK-10 renal; 29.7 µM in the experiment on COLO 205 colon; above 100 µM in the experiment with HOP-92 NSCLC.

As to `CCCCOC(=O)NC(=O)c1cn(CCCOC(=O)CCCCCCCCC(=O)OCCCn2cc(C(=O)NC(=O)OCCCC)c(=O)n(C)c2=O)c(=O)n(C)c1=O`, the TGI in the experiment with K-562 leukemia, with NCI-H226 lung, in the experiment with OVCAR-5 ovarian, with SNB-75 CNS, in the experiment with SR leukemia and with SF-268 CNS was above 100 µM throughout. For the same compound, the TGI in the experiment on A498 renal, with TK-10 renal, in the experiment with COLO 205 colon and in the experiment with HOP-92 NSCLC was above 100 µM each time.

As for `O=C1[C@@H]2C(c3ccccc3[N+](=O)[O-])=NO[C@@H]2C(=O)N1c1ccc(Cc2ccc(N3C(=O)[C@H]4C(c5ccccc5[N+](=O)[O-])=NO[C@H]4C3=O)cc2)cc1`, the TGI with K-562 leukemia, in the experiment on OVCAR-5 ovarian, in the experiment on SNB-75 CNS, with SR leukemia, with SF-268 CNS and with A498 renal was above 100 µM each time. Besides, the total growth inhibition concentration (TGI) in the experiment on TK-10 renal, in the experiment on COLO 205 colon and in the experiment with HOP-92 NSCLC was above 100 µM throughout.

Turning to `C=C(C)CCC1C=[N+]([O-])OC(C)(C)C1(C)C` (stereo not given), the total growth inhibition concentration (TGI) in the experiment with K-562 leukemia, with NCI-H226 lung, with SK-OV-3 ovarian, in the experiment with OVCAR-5 ovarian, in the experiment with SNB-75 CNS and in the experiment with SR leukemia was above 100 µM in each case. Also, the TGI in the experiment with SF-268 CNS, in the experiment with A498 renal, in the experiment on TK-10 renal, with COLO 205 colon and in the experiment on HOP-92 NSCLC was above 100 µM throughout.

With `COc1ccc(-c2oc3cc(O)c(OC)c(O)c3c(=O)c2O)cc1`, the total growth inhibition concentration (TGI) was above 53.5 µM in the experiment on K-562 leukemia; 24.4 µM with NCI-H226 lung; 42.8 µM in the experiment on SK-OV-3 ovarian; above 70.1 µM with OVCAR-5 ovarian; 63.2 µM with SNB-75 CNS; 20.8 µM in the experiment with SR leukemia. The concentration for total growth inhibition (TGI) is above 77.1 µM in the experiment on SF-268 CNS; 22.3 µM with A498 renal; above 100 µM in the experiment with TK-10 renal; above 80.6 µM in the experiment with COLO 205 colon; above 72.3 µM with HOP-92 NSCLC.

Turning to `N#COc1ccc(Oc2ccc(OC#N)cc2)cc1`, the TGI was above 100 µM with K-562 leukemia; above 100 µM in the experiment with NCI-H226 lung; above 100 µM in the experiment with SK-OV-3 ovarian; above 100 µM in the experiment on OVCAR-5 ovarian; above 100 µM in the experiment with SNB-75 CNS; 50.1 µM in the experiment on SR leukemia. The total growth inhibition concentration (TGI) with SF-268 CNS is above 100 µM; in the experiment with A498 renal, above 100 µM; in the experiment with TK-10 renal, above 100 µM; in the experiment with COLO 205 colon, 54 µM; in the experiment with HOP-92 NSCLC it was above 100 µM.

Turning to `CSc1ccc2c(c1)c(CCN)c(C)n2Cc1ccccc1Cl`, the concentration for total growth inhibition (TGI) is 2.83 µM in the experiment on K-562 leukemia; 4.1 µM in the experiment on NCI-H226 lung; 4.28 µM in the experiment with SK-OV-3 ovarian; 3.78 µM with OVCAR-5 ovarian; 3.04 µM in the experiment with SNB-75 CNS; above 100 µM in the experiment with SR leukemia. Besides, the TGI in the experiment on SF-268 CNS was found to be 3.4 µM; in the experiment with A498 renal, 3.1 µM; in the experiment with TK-10 renal, 3.15 µM; with COLO 205 colon, 2.99 µM; in the experiment with HOP-92 NSCLC, 2.75 µM.

`CCOC(=O)NN(C(=O)OCC)C(C(=O)c1ccccc1)N(NC(=O)OCC)C(=O)OCC`: the TGI with K-562 leukemia, in the experiment with NCI-H226 lung, in the experiment on SK-OV-3 ovarian, with OVCAR-5 ovarian, with SNB-75 CNS and in the experiment with SR leukemia was above 100 µM throughout. Besides, the total growth inhibition concentration (TGI) in the experiment with SF-268 CNS, with A498 renal, with TK-10 renal, with COLO 205 colon and in the experiment on HOP-92 NSCLC was above 100 µM in each case.

For `NC1=Nc2ccccc2Sc2cccc(F)c21`, the TGI in the experiment with K-562 leukemia, in the experiment on NCI-H226 lung, in the experiment on SK-OV-3 ovarian, in the experiment on OVCAR-5 ovarian, in the experiment on SNB-75 CNS and in the experiment on SR leukemia was above 100 µM each time. The concentration for total growth inhibition (TGI) in the experiment with SF-268 CNS, in the experiment on A498 renal, in the experiment on TK-10 renal, in the experiment with COLO 205 colon and in the experiment with HOP-92 NSCLC was above 100 µM each time.

With `N#CC1=C(N)N(/N=C/c2ccco2)C(c2ccco2)C1(C#N)C#N` (stereo not given), the concentration for total growth inhibition (TGI) in the experiment with K-562 leukemia stood at 85.1 µM; in the experiment with NCI-H226 lung, 37.7 µM; in the experiment with SK-OV-3 ovarian, 83.8 µM; in the experiment with OVCAR-5 ovarian, 41.7 µM; in the experiment with SNB-75 CNS it was 36.6 µM; with SR leukemia, 39.3 µM. Also, the TGI was 79.7 µM with SF-268 CNS; 29.9 µM with A498 renal; 32.4 µM in the experiment on TK-10 renal; 28.9 µM in the experiment on COLO 205 colon; 33.5 µM with HOP-92 NSCLC.

For `CCOC(=O)c1cc(C)nc2c1c(=O)n(-c1ccccc1)c(=O)n2CCCCN1CCN(c2ncccn2)CC1`, the TGI with K-562 leukemia, in the experiment on NCI-H226 lung, in the experiment with SK-OV-3 ovarian, with OVCAR-5 ovarian, in the experiment with SNB-75 CNS and in the experiment with SR leukemia was above 100 µM throughout. Besides, the total growth inhibition concentration (TGI) with SF-268 CNS, with A498 renal, in the experiment with TK-10 renal, in the experiment on COLO 205 colon and in the experiment with HOP-92 NSCLC was above 100 µM in each case.

For `CC(C)(C)OC(=O)N1N=CCC1c1ccccc1` (stereo not given), the TGI in the experiment with K-562 leukemia, with NCI-H226 lung, in the experiment with SK-OV-3 ovarian, with OVCAR-5 ovarian, in the experiment on SNB-75 CNS and in the experiment on SR leukemia was above 100 µM each time. In addition, the total growth inhibition concentration (TGI) in the experiment with SF-268 CNS, in the experiment on A498 renal, with TK-10 renal, in the experiment with COLO 205 colon and in the experiment on HOP-92 NSCLC was above 100 µM in each case.

As for `COC(=O)c1c2c(cc3c1CC1(Cc4ccccc4C1)C3)CCC2`, the TGI was 24.3 µM with K-562 leukemia; above 100 µM with NCI-H226 lung; above 100 µM in the experiment on SK-OV-3 ovarian; above 100 µM with OVCAR-5 ovarian; above 100 µM in the experiment on SNB-75 CNS; 54.2 µM with SR leukemia. Also, the concentration for total growth inhibition (TGI) with SF-268 CNS is above 100 µM; in the experiment on A498 renal it was above 100 µM; with TK-10 renal, above 100 µM; in the experiment with COLO 205 colon, 42.1 µM; in the experiment with HOP-92 NSCLC it was above 100 µM.
